| Structure (SMILES) | melting point |
| --- | --- |
| O=C1NC(C2CCOCC2)=N/C1=C\c1c[nH]c2ncccc12 [Example 71, (5Z)-5-(1H-pyrrolo[2,3-b]pyridin-3-ylmethylidene)-2-(tetrahydro-2H-pyran-4-yl)-3,5-dihydro-4H-imidazol-4-one] | 317 to 319 °C |
| CCCSC1=N/C(=C\c2c[nH]c3ncc(Cl)cc23)C(=O)N1 [Example 62, (5Z)-5-[(5-chloro-1H-pyrrolo[2,3-b]pyridin-3-yl)methylidene]-2-(propylsulphanyl)-3,5-dihydro-4H-imidazol-4-one] | 316 to 318 °C |
| Cc1cnc2[nH]cc(/C=C3\N=C(N4CCCCC4)NC3=O)c2c1 [Example 45, (5Z)-5-[(5-methyl-1H-pyrrolo[2,3-b]pyridin-3-yl)methylidene]-2-piperidin-1-yl-3,5-dihydro-4H-imidazol-4-one] | 320 to 321 °C |
| O=C1NC(N2CCOCC2)=N/C1=C\c1c[nH]c2ncc(-c3ccccc3)cc12 [Example 39, (5Z)-2-morpholin-4-yl-5-[(5-phenyl-1H-pyrrolo[2,3-b]pyridin-3-yl)methylidene]-3,5-dihydro-4H-imidazol-4-one] | 361 °C |
| CN(Cc1ccccn1)C1=N/C(=C\c2c[nH]c3ncc(Cl)cc23)C(=O)N1 [Example 96, (5Z)-5-[(5-chloro-1H-pyrrolo[2,3-b]pyridin-3-yl)methylidene]-2-[methyl(pyridin-2-ylmethyl)amino]-3,5-dihydro-4H-imidazol-4-one] | 350 °C |
| CC(C)CC1=N/C(=C\c2c[nH]c3ncccc23)C(=O)N1C [Example 75, (5Z)-3-methyl-2-(2-methylpropyl)-5-(1H-pyrrolo[2,3-b]pyridin-3-ylmethylidene)-3,5-dihydro-4H-imidazol-4-one] | 201 °C |
| CCCCC1=N/C(=C\c2c[nH]c3nc(Cl)ccc23)C(=O)N1 [Example 65, (5Z)-2-butyl-5-[(6-chloro-1H-pyrrolo[2,3-b]pyridin-3-yl)methylidene]-3,5-dihydro-4H-imidazol-4-one] | 318 to 321 °C |
| CC(C)CC1=N/C(=C\c2c[nH]c3ncc(Cl)cc23)C(=O)N1C [Example 76, (5Z)-5-[(5-chloro-1H-pyrrolo[2,3-b]pyridin-3-yl)methylidene]-3-methyl-2-(2-methylpropyl)-3,5-dihydro-4H-imidazol-4-one] | 282 °C |
| CC(C)CCC1=N/C(=C\c2c[nH]c3ncccc23)C(=O)N1 [Example 68, (5Z)-2-(3-methylbutyl)-5-(1H-pyrrolo[2,3-b]pyridin-3-ylmethylidene)-3,5-dihydro-4H-imidazol-4-one] | 274 °C |
| O=C1NC(CC2CC2)=N/C1=C\c1c[nH]c2ncc(Cl)cc12 [Example 78, (5Z)-2-(cyclopropylmethyl)-5-(5-chloro-1H-pyrrolo[2,3-b]pyridin-3-ylmethylidene)-3,5-dihydro-4H-imidazol-4-one] | 295 to 296 °C |
| O=C1NC(NCC2CC2)=N/C1=C\c1c[nH]c2ncc(C(F)(F)F)cc12 [Example 48, (5Z)-2-[(cyclopropylmethyl)amino]-5-{[5-(trifluoromethyl)-1H-pyrrolo[2,3-b]pyridin-3-yl]methylidene}-3,5-dihydro-4H-imidazol-4-one] | 350 °C |
| CN1C(=O)/C(=C/c2c[nH]c3ncccc23)N=C1C1CCCCC1 [Example 70, (5Z)-2-cyclohexyl-3-methyl-5-(1H-pyrrolo[2,3-b]pyridin-3-ylmethylidene)-3,5-dihydro-4H-imidazol-4-one] | 261 to 262 °C |
| O=C1/C(=C/c2c[nH]c3ncc(Cl)cc23)N=C(Oc2ccccc2)N1c1ccccc1 [Example 97, (5Z)-5-[(5-chloro-1H-pyrrolo[2,3-b]pyridin-3-yl)methylidene]-2-phenoxy-3-phenyl-3,5-dihydro-4H-imidazol-4-one] | 287 °C |
| CC(C)C1=N/C(=C\c2c[nH]c3ncc(Cl)cc23)C(=O)N1 [Example 80, (5Z)-2-(1-methylethyl)-5-(5-chloro-1H-pyrrolo[2,3-b]pyridin-3-ylmethylidene)-3,5-dihydro-4H-imidazol-4-one] | 277 to 280 °C |
| CN1CCN(C2=N/C(=C\c3c[nH]c4ncc(-c5ccccc5)cc34)C(=O)N2)CC1 [Example 41, (5Z)-2-(4-methylpiperazin-1-yl)-5-[(5-phenyl-1H-pyrrolo[2,3-b]pyridin-3-yl)methylidene]-3,5-dihydro-4H-imidazol-4-one] | 304 °C |
| COCCN(C)C1=N/C(=C\c2c[nH]c3ncc(Cl)cc23)C(=O)N1 [Example 95, (5Z)-5-[(5-chloro-1H-pyrrolo[2,3-b]pyridin-3-yl)methylidene]-2-[(2-methoxyethyl)(methyl)amino]-3,5-dihydro-4H-imidazol-4-one] | 281 °C |
| O=C1NC(N2CCCCCC2)=N/C1=C\c1c[nH]c2ncc(C(F)(F)F)cc12 [Example 49, (5Z)-2-azepan-1-yl-5-{[5-(trifluoromethyl)-1H-pyrrolo[2,3-b]pyridin-3-yl]methylidene}-3,5-dihydro-4H-imidazol-4-one] | 340 °C |
| CN(Cc1ccccc1)C1=N/C(=C\c2c[nH]c3ncc(Cl)cc23)C(=O)N1 [Example 93, (5Z)-2-[benzyl(methyl)amino]-5-[(5-chloro-1H-pyrrolo[2,3-b]pyridin-3-yl)methylidene]-3,5-dihydro-4H-imidazol-4-one] | 310 °C |

| Structure (SMILES) | melting point |
| --- | --- |
| CN1C(=O)/C(=C/c2c[nH]c3ncc(Cl)cc23)N=C1C1CCOCC1 [Example 73, (5Z)-5-[(5-chloro-1H-pyrrolo[2,3-b]pyridin-3-yl)methylidene]-3-methyl-2-(tetrahydro-2H-pyran-4-yl)-3,5-dihydro-4H-imidazol-4-one] | 338 °C |
| Cc1cnc2[nH]cc(/C=C3\N=C(NCC4CC4)NC3=O)c2c1 [Example 43, (5Z)-2-[(cyclopropylmethyl)amino]-5-[(5-methyl-1H-pyrrolo[2,3-b]pyridin-3-yl)methylidene]-3,5-dihydro-4H-imidazol-4-one] | 319 to 320 °C |
| O=C1NC(N2CCCCC2)=N/C1=C\c1c[nH]c2ncc(-c3ccccc3)cc12 [Example 40, (5Z)-5-[(5-phenyl-1H-pyrrolo[2,3-b]pyridin-3-yl)methylidene]-2-piperidin-1-yl-3,5-dihydro-4H-imidazol-4-one] | 307 °C |
| CC(C)C1=N/C(=C\c2c[nH]c3ncccc23)C(=O)N1C [Example 81, (5Z)-3-methyl-2-(1-methylethyl)-5-(1H-pyrrolo[2,3-b]pyridin-3-ylmethylidene)-3,5-dihydro-4H-imidazol-4-one] | 222 to 224 °C |
| N#Cc1cnc2[nH]cc(/C=C3\N=C(NCC4CC4)NC3=O)c2c1 [Example 37, 3-[(Z)-{2-[(cyclopropylmethyl)amino]-5-oxo-1,5-dihydro-4H-imidazol-4-ylidene}methyl]-1H-pyrrolo[2,3-b]pyridine-5-carbonitrile] | 335 °C |
| CN(Cc1ccco1)C1=N/C(=C\c2c[nH]c3ncc(Cl)cc23)C(=O)N1 [Example 94, (5Z)-5-[(5-chloro-1H-pyrrolo[2,3-b]pyridin-3-yl)methylidene]-2-[(furan-2-ylmethyl)(methyl)amino]-3,5-dihydro-4H-imidazol-4-one] | 315 °C |
| COC1=N/C(=C\c2c[nH]c3ncc(Cl)cc23)C(=O)N1c1ccccc1 [Example 98, (5Z)-5-[1-(5-chloro-1H-pyrrolo[2,3-b]pyridin-3-yl)-methylidene]-2-methoxy-3-phenyl-3,5-dihydro-4H-imidazol-4-one] | 227.5 °C |
| CC(C)C1=N/C(=C\c2c[nH]c3ncccc23)C(=O)N1 [Example 79, (5Z)-2-(1-methylethyl)-5-(1H-pyrrolo[2,3-b]pyridin-3-ylmethylidene)-3,5-dihydro-4H-imidazol-4-one] | 309 to 310 °C |
| CN1C(=O)/C(=C/c2c[nH]c3ncccc23)N=C1C1CCOCC1 [Example 72, (5Z)-5-[(1H-pyrrolo[2,3-b]pyridin-3-yl)methylidene]-3-methyl-2-(tetrahydro-2H-pyran-4-yl)-3,5-dihydro-4H-imidazol-4-one] | 283 to 285 °C |
| O=C1NC(N2CCCCC2)=N/C1=C\c1c[nH]c2ncc(Cl)cc12 [Example 30, (5Z)-5-[(5-chloro-1H-pyrrolo[2,3-b]pyridin-3-yl)methylidene]-2-piperidin-1-yl-3,5-dihydro-4H-imidazol-4-one] | 315 to 320 °C |
| O=C1NC(SCc2ccccc2)=N/C1=C\c1c[nH]c2ncc(Cl)cc12 [Example 61, (5Z)-2-(benzylsulphanyl)-5-[(5-chloro-1H-pyrrolo[2,3-b]pyridin-3-yl)methylidene]-3,5-dihydro-4H-imidazol-4-one] | 313 to 315 °C |
| CN(C)C1=N/C(=C\c2c[nH]c3ncc(Cl)cc23)C(=O)N1 [Example 32, (5Z)-5-[(5-chloro-1H-pyrrolo[2,3-b]pyridin-3-yl)methylidene]-2-(dimethylamino)-3,5-dihydro-4H-imidazol-4-one] | 350 °C |
| O=C1NC(N2CCCCCC2)=N/C1=C\c1c[nH]c2ncc(F)cc12 [Example 36, (5Z)-2-azepan-1-yl-5-[(5-fluoro-1H-pyrrolo[2,3-b]pyridin-3-yl)methylidene]-3,5-dihydro-4H-imidazol-4-one] | 299 °C |
| CC(C)CNC1=N/C(=C\c2c[nH]c3ncc(Cl)cc23)C(=O)N1 [Example 29, (5Z)-5-[(5-chloro-1H-pyrrolo[2,3-b]pyridin-3-yl)methylidene]-2-[(2-methylpropyl)amino]-3,5-dihydro-4H-imidazol-4-one] | 325 to 330 °C |
| CCCCC1=N/C(=C\c2c[nH]c3ncccc23)C(=O)N1C [Example 66, (5Z)-2-butyl-3-methyl-5-(1H-pyrrolo[2,3-b]pyridin-3-ylmethylidene)-3,5-dihydro-4H-imidazol-4-one] | 220 to 222 °C |
| CSC1=N/C(=C\c2c[nH]c3ncc(Cl)cc23)C(=O)N1 [Example 60, (5Z)-5-[(5-chloro-1H-pyrrolo[2,3-b]pyridin-3-yl)methylidene]-2-(methylsulphanyl)-3,5-dihydro-4H-imidazol-4-one] | > 410 °C |
| Cc1cnc2[nH]cc(/C=C3\N=C(N4CCN(c5ccccc5)CC4)NC3=O)c2c1 [Example 46, (5Z)-5-[(5-methyl-1H-pyrrolo[2,3-b]pyridin-3-yl)methylidene]-2-(4-phenylpiperazin-1-yl)-3,5-dihydro-4H-imidazol-4-one] | 331 to 332 °C |
